Measurements published in patent publication US20130165368A1, “ANTIMICROBIAL COMPOUNDS” (priority 2010, published 2013).
Converted amounts (≈) assume the structure as drawn. Where two headings read alike, the source gives them in different places.

Legend:
Assay type in all cases: cell-based
MRSA FIN 54511 (E6) = test: MIC agar dilution, MRSA strain 32; details: Staphylococcus aureus
Method: (§1) Molar equivalent concentrations were used to allow comparison between compounds of differing molecular mass. Due to weighing difficulties, any compound in solid form was melted in a water bath prior to dilution. To make ten-times strength concentrations, which takes into account agar dilution, 0.0352 mmol of each compound was weighed into plastic universal bottles and 4 mL of sterile distilled water (SDW) was added. To produce a homogenous emulsion the universals were vortexed; once achieved the emulsions were serial diluted by adding 2 mL to 2 mL of SDW.
(§2) For every 100 mL of Isosensitest agar (IST) (CM0471; Oxoid, Basingstoke, England), 3.1 g of the IST powder was added to 100 mL SDW (as per manufacturer's instructions) and sterilised for 15 minutes at 121° C. Once sterilised, the molten agar was cooled to 50° C. in a water-bath. Subsequently 4.8 g of CCEY powder (BC2160; Bioconnections, Wetherby, England), also known as Brazier's medium, was added to 100 mL SDW for every 100 mL of agar needed. This was then sterilised for 15 minutes at 121° C. Once sterilised the molten agar was cooled to 50° C. in a water-bath and 4 mL of egg-yolk emulsion (S2073; TCS Biosciences Ltd, Buckingham, United Kingdom) and 1 mL of lysed defibrinated horse blood (HB035; TCS Biosciences Ltd, Buckingham, United Kingdom) were also added for every 100 mL needed. Horse blood lysis is achieved by dilution to half concentration with SDW; when fully lysed the mixture will turn dark red in colour.
(§3) 18 mL agar was added to each universal and then poured into sterile Petri dishes. This step creates a 1/10 dilution resulting in agar plates of the required strength. Control plates for each set of strains were created by adding 18 mL of agar to 2 mL of SDW.
(§4) Suspensions of each bacterial species were prepared with a density equal to that of a 0.5 McFarland standard using a densitometer. All suspensions were made using sterile distilled water and fresh 18-20 hour cultures. As a 0.5 McFarland standard contains 1.5×10^8 CFU/mL and the multipoint inoculators applies 1 μL spots of liquid, each bacterial suspension was diluted 1/15 (20 μL suspension to 280 μL sterile distilled water).
(§5) Bacterial suspensions were prepared from fresh 18-24 hour cultures as previously described. 1 μL of each strain was inoculated onto all 100 agar plates containing a different chemical concentration and the 2 control plates. This was done using a multipoint inoculator which inoculates 20 strains per plate. All plates were incubated for 22 hours at 37° C. in aerobic conditions.
(§6) Each plate was examined for bacterial growth after 22 and 48 hours, with each being incubated in between examinations. A positive result was recorded as growth of ≧10 colonies. A negative result was recorded as growth of <10 colonies as this is equivalent to 99.9% inhibition. The lowest concentration of chemical that inhibited growth was recorded as the MIC. The results are recorded in Table IV below, where the numbers are quoted in mmol/L.
(§7) Given the positive performance of the ethoxylates of lauryl alcohol in reducing the MIC for a number of the micro-organisms tested, further MIC testing of Laureth-1 [C12E1] through to Laureth-8 [C12E8] was conducted on each of the following: • 10 strains of vancomycin-resistant enterococci (VRE)—listed in Table V below; and • 20 strains of methicillin-resistant Staphylococcus aureus (MRSA)—listed in Table VI.
(§8) The alkanol, alkanol derivatives, agar plates, and inocula were all prepared in the same way as described above.
(§9) The plates were examined in the same manner as described above and the results are recorded in Table VII below, where the numbers are quoted in mmol/L.

Escherichia coli = test: MIC agar dilution, micro-organism 1 (10418); details: Escherichia coli 10418, read-out: MIC
Procedure, shortened: (§10)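 Agar dilution in Isosensitest/CCEY agar with egg yolk and lysed horse blood; compounds as aqueous emulsions (myristyl and lauryl alcohol with 1-methyl-2-pyrrolidone and Tween 20). 1 µL spots of 1/15-diluted 0.5 McFarland suspensions, 37 °C aerobic, read at 22 and 48 h; MIC (mmol/L) is lowest concentration giving <10 colonies.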

Bacillus subtilis = test: MIC agar dilution, micro-organism 18 (9372); details: Bacillus subtilis 9372, read-out: MIC
Procedure, shortened: as §10

[1] = test system: MRSA GER 1966/97 (Hanover IIIc); test: MIC agar dilution, MRSA strain 36; details: Staphylococcus aureus
Method: as §1, §2, §3, §4, §5, §6, §7, §8, §9

MRSA FRA 920 = test: MIC agar dilution, MRSA strain 38; details: Staphylococcus aureus
Method: as §1, §2, §3, §4, §5, §6, §7, §8, §9

[2] = test system: Enterococcus faecalis (VRE) PHLS URINE 2000; test: MIC agar dilution, VRE strain 21
Method: as §1, §2, §3, §4, §5, §6, §7, §8, §9

[3] = test system: Enterococcus faecium (VRE) NCTC 12952; test: MIC agar dilution, VRE strain 30
Method: as §1, §2, §3, §4, §5, §6, §7, §8, §9

MRSA BEL 97598 = test: MIC agar dilution, MRSA strain 34; details: Staphylococcus aureus
Method: as §1, §2, §3, §4, §5, §6, §7, §8, §9

[4] = test system: Enterococcus faecium (VRE) MB 3137; test: MIC agar dilution, VRE strain 26
Method: as §1, §2, §3, §4, §5, §6, §7, §8, §9

Staphylococcus aureus = test: MIC agar dilution, micro-organism 13 (6571); details: Staphylococcus aureus, Staphylococcus aureus 6571, read-out: MIC
Procedure, shortened: as §10

MRSA EMRSA 15 1758/98 = test: MIC agar dilution, MRSA strain 43; details: Staphylococcus aureus
Method: as §1, §2, §3, §4, §5, §6, §7, §8, §9

MRSA NCTC 11939 = test: MIC agar dilution, MRSA strain 50; details: Staphylococcus aureus, MRSA strain 50 NCTC 11939
Method: as §1, §2, §3, §4, §5, §6, §7, §8, §9

MRSA EMRSA 16 18200/95 = test: MIC agar dilution, MRSA strain 48; details: Staphylococcus aureus
Method: as §1, §2, §3, §4, §5, §6, §7, §8, §9

MIC (MRSA FIN 54511 (E6); 22 hrs): 220 µM (≈ 119 µg/mL)
MIC (MRSA FIN 54511 (E6); 48 hrs): > 440 µM
MIC (Escherichia coli; 22 hrs): > 880 µM
MIC (Escherichia coli; 48 hrs): > 880 µM
MIC (Bacillus subtilis; 22 hrs): 110 µM (≈ 59.3 µg/mL)
MIC (Bacillus subtilis; 48 hrs): 110 µM (≈ 59.3 µg/mL)
MIC ([1]; 22 hrs): 110 µM (≈ 59.3 µg/mL)
MIC ([1]; 48 hrs): 110 µM (≈ 59.3 µg/mL)
MIC (MRSA FRA 920; 22 hrs): > 440 µM
MIC (MRSA FRA 920; 48 hrs): > 440 µM
MIC ([2]; 22 hrs): 220 µM (≈ 119 µg/mL)
MIC ([2]; 48 hrs): 220 µM (≈ 119 µg/mL)
MIC ([3]; 22 hrs): > 880 µM
MIC ([3]; 48 hrs): > 880 µM
MIC (MRSA BEL 97598; 22 hrs): > 440 µM
MIC (MRSA BEL 97598; 48 hrs): > 440 µM
MIC ([4]; 22 hrs): > 880 µM
MIC ([4]; 48 hrs): > 880 µM
MIC (Staphylococcus aureus; 22 h, 22 hrs): 110 µM (≈ 59.3 µg/mL)
MIC (Staphylococcus aureus; 48 h, 48 hrs): 110 µM (≈ 59.3 µg/mL)
MIC (MRSA EMRSA 15 1758/98; 22 hrs): > 440 µM
MIC (MRSA EMRSA 15 1758/98; 48 hrs): > 440 µM
MIC (MRSA NCTC 11939; 22 hrs): 220 µM (≈ 119 µg/mL)
MIC (MRSA NCTC 11939; 48 hrs): 220 µM (≈ 119 µg/mL)
MIC (MRSA EMRSA 16 18200/95; 22 hrs): > 440 µM
MIC (MRSA EMRSA 16 18200/95; 48 hrs): > 440 µM
Compound: CCCCCCCCCCCCOCCOCCOCCOCCOCCOCCOCCOCCO [L8, Octaethylene Glycol Monododecyl Ether]
